The text below walks through data of PMC7226417, “Utilizing Genome-Wide mRNA Profiling to Identify the Cytotoxic Chemotherapeutic Mechanism of Triazoloacridone C-1305 as Direct Microtubule Stabilization” (Cancers, 2020).

For this assay, the system named is T1, tubulin (α/β tubulin dimer).
T1 construct: with α- and β-tubulin heterodimer
Description: in vitro tubulin polymerization assay, turbidity at […] nm (stabilization of polymerization). The format is biochemical.

As usually defined, the EC50 is the midpoint of the concentration-response curve.

Structures are written as SMILES.

Molecule `CN(C)CCCNc1ccc2nnn3c4ccc(O)cc4c(=O)c1c23` [C-1305, 5-{[3-(Dimethylamino)propyl]amino}-8-hydroxy-6H-[1,2,3]triazolo[4,5,1-de]acridin-6-one] came in with a half-maximal effective concentration (EC50) of 2.74 µM.
